Measurements from patent US20250352555A1, “METHOD OF INCREASING IMMUNE CELL ACTIVATION AND/OR TREATING CANCER USING DIBENZOXAZEPINONES” (VASCULAR THERAPEUTICS PTY LTD, priority 2022, published 2025).

Experiments:
[1] = tested on: MeWo cells; test: Cell morphology study, MeWo; type: cell-based, human; conditions: 1 μM, 24 h
Method: Cell morphology studies. Cells were grown in medium containing 10% FBS in 4-well chamber slides. The following day the cells were incubated in medium containing 10% FBS and vehicle, BT2 or SCH772984 at 1 μM for 24 h, then fixed with 4% paraformaldehyde solution for 15 min. After washing briefly in PBS the cells were stained with hemotoxylin and eosin. The slides were scanned using an Aperio ScanScope XT slide scanner (Leica Biosystems, Mt Waverley, Vic, Australia) and images were captured using ImageScope software (Leica Biosystems).
The morphology of A375 and MeWo cells exposed to 1 μM of BT2 or SCH772984 for 24 h was also assessed.

[2] = tested on: total ERK; test: Immunohistochemistry of MDA-MB-435 tumors, total ERK; type: in vivo, mouse; conditions: SCID mice, 20 mg/kg i.t.
Excerpt: (§1) Immunohistochemical staining and analyses. Rabbit monoclonal anti-CD3 (cat. no. ab16669; mouse, rat and human reactive), rabbit monoclonal anti-PD-1 (cat. no. ab214421), rabbit monoclonal anti-CD68 (cat. no. ab125212) antibodies were obtained from Abcam, rabbit monoclonal anti-phospho-ERK (Thr^202/Tyr^204) (cat. no. CST4370), rabbit monoclonal total ERK (cat. no. CST4695), antibodies were obtained from Cell Signaling Technology. Rabbit polyclonal anti-PD-L1 (cat. no. PA5-20343) antibody was obtained from ThermoFisher.
(§2) Formalin fixed, paraffin embedded sections were prepared from tumors. Heat-induced epitope retrieval was applied to all deparaffinized sections (4 μm sections on Superfrost slides) with citrate buffer, pH 6.0 for 5 min at 110° C. Sections were blocked with Dual Endogenous Enzyme Block (DAKO, S2003) for 10 min and then with 2% skim milk for 20 min. Slides were incubated with primary antibody for 60 min at room temperature or overnight at 4° C. and then for 10 min with probe of MACH3 Rabbit AP-Polymer Detection solution (Biocare Medical, M3R533 G, H, L). […] Integrated optical density (IOD) or area of positive staining (red chromagen) was assessed using Image-Pro Plus software (Cybernetics, Bethesda, MD, USA). Positive staining was the average of quantitation in 4-8 fields of view under 20× or 40× objectives.

[3] = tested on: human melanoma (MDA-MB-435 cells); test: Melanoma growth in SCID mice bearing MDA-MB-435 xenograft; type: in vivo, mouse; conditions: 5 days-on/2 days-off; for tumor growth (volume): from Day 16
Method: In experiments with SCID mice, 5 week old CB17/lcr-Prkdcscid/lcrlcoCrl mice (sourced from Charles River Laboratories, USA) were inoculated s.c. with human MDA-MB-435 cells (2.5×10^6 cells/animal in 100 μl PBS) in the third mammary fat pad on Day 0. These cells were also sourced from ATCC. BT2 was suspended at 9.6 mg/ml in vehicle (saline containing 0.5% (v/v) Tween 80 and 0.01% (v/v) DMSO) and sonicated. Vehicle or BT2 were administered i.p. or intratumorally (i.t.) 20 mg/kg (i.t.) or 200 mg/kg (i.p.), once a day on a 5 days-on/2 days-off schedule. Treatment commenced on Day 16 and ended on Day 43. Tumor growth and body weight data is sourced from the animal study described in Li et al (Li et al., 2019) with the same vehicle group.
Tumors were measured by length and width in mm twice per week for MDA-MB-435 in SCID mice and by length, width and height in mm once per day for B16F10 in C57BL/6J mice. Tumor volumes were calculated using formula V=(L×W×H×π)/6 (B16F10) or V=L×W×W/2 (MDA-MB-435). If a second tumor was detected in an animal, both tumor volumes were measured and their volumes combined. Animal protocols were approved by the Explora Biolabs' Institutional Animal Care and Use Committee (IACUC) and the UNSW Animal Care and Ethics Committee.
BT2's ability to inhibit melanoma growth was investigated in a murine xenograft model. Immunocompromised SCID mice (C.B.17/lcr-Prkdcscid/lcrlcoCrl) bearing human melanoma (MDA-MB-435 cells, also mutant BRAF^V600E) were treated with 20 mg/kg BT2 intratumorally (i.t.) on a 5 days-on/2 days-off regime (FIG. 5A).
To assess the effect of BT2 when delivered systemically (rather than locally) in the same immunodeficient mouse model, C.B.17 SCID mice bearing s.c. MDA-MB-435 tumors were given BT2 200 mg/kg or vehicle i.p. once a day on a 5 days-on/2 days-off schedule. Treatment commenced on Day 16 (FIG. 7A).

[4] = tested on: PD-L1; test: Immunohistochemistry of B16F10 tumors (Day 17), PD-L1; type: in vivo, mouse; conditions: B16F10 tumors Day 17, 200 mg/kg i.p., vs vehicle
Excerpt: as §1
as §2, with “objectives. […]” for “objectives.”

[5] = tested on: IFN-γ; test: Mouse serum IFN-γ levels by ELISA; type: in vivo; conditions: B16F10 tumor-bearing mice Day 17, 200 mg/kg i.p., vs vehicle
Method: Mouse serum IFN-γ levels. Whole blood was collected from Day 17 mice and spun at 1500 g for 10 min at 4° C. Serum was extracted from the top layer and stored at −80° C. IFN-γ levels were measured using the mouse IFN-γ (Improved) ELISA kit (Invitrogen, cat. no. KMC4021) according to the manufacturer's protocol, with absorbance being read at 450 nm. GraphPad Prism 9 software was used to generate the standard curve. IFN-γ levels in mouse serum were measured alongside the standard curve by using GraphPad Prism 9.
IFN-γ is a biomarker of cellular immunity and the antitumor immune response. Elevated IFN-γ is associated with a systemic immune response in cancer patients and tumor-bearing mice after immune checkpoint therapy. Since IFN-γ is produced by T cells, levels of IFN-γ in the sera of tumor-bearing mice treated with vehicle or BT2 were determined.

[6] = MDA-MB-435, 20 mg/kg i.t. once a day

Compound: CCOC(=O)Nc1ccc2c(c1)C(=O)N(CC)c1ccccc1O2 [BT2, (10-ethyl-11-oxo-10,11-dihydro-dibenzo[b,f][1,4]oxazepin-2-yl)-carbamic acid ethyl ester]
- cell morphology [1]: loss of spindle morphology and cell rounding
- total ERK levels in the tumors (IHC) [2]: no effect on total ERK levels
- body weight [3, 6]: no adverse effect on body weight
- tumor growth (volume) [3, 6]: caused growth inhibition
- tumor growth (volume) ([3]; MDA-MB-435, 200 mg/kg i.p. once a day): no inhibition was observed
- PD-L1 levels in tumors (IHC) [4]: increased
- circulating (serum) IFN-γ levels [5]: elevated
